{
  "source": "patent US20230130513A1",
  "about": "“Magnetic-Responsive Photosensitizer Nanoplatform and Uses Thereof” (University of Maryland, Baltimore, priority 2021, published 2023)",
  "key": {"S. mutans biofilms": {"system": "S. mutans biofilms", "test": "Live/Dead staining of S. mutans biofilms", "type": "cell-based, Streptococcus mutans", "conditions": "aPDT, no magnetic field", "protocol": "After each treatment, the biofilms were washed by placing 200 μL of 0.9% saline inside the well, and then, the 0.9% saline was gently aspirated. Next, another 200 μL of saline was placed inside the well, and the biofilm was gently scraped to remove the biofilm cells (23). Then, the biofilm cells were resuspended with the saline to perform serial dilutions (1:10, 1:100, 1:1000, 1:10 000, and 1:100 000) using BHI agar. The BHI agar plates were incubated for 48 h at 37° C. in a 5% CO2 incubator and then counted using a colony counter. Considering the dilution factor, the CFUs/mL were calculated and estimated to measure the number of colonies per milliliter. Two wells were randomly selected for Live/Dead staining of the biofilms to be washed with 0.9% saline and then stained with the BacLight live/dead kit (Molecular Probes, Eugene, Oreg.)."}, "S. mutans UA159 biofilms": {"system": "S. mutans UA159 biofilms", "test": "Photodynamic treatment against Streptococcus mutans biofilms (CFU)", "type": "cell-based", "conditions": "for antibacterial effect of core components on S. mutans biofilm: components alone, diluted to their concentration in the microemulsion (FIG. 5A)", "protocol": "Photodynamic Treatment Via MagTBO Against Streptococcus mutans Biofilms S. mutans UA159 obtained from the American Type Culture Collection (ATCC, Manassas, Va., USA) were grown overnight using brain heart infusion (BHI) broth (Sigma-Aldrich, St. Louis, Mo., USA) at 37° C. and 5% CO2 incubator. The optical density of the S. mutans was modified to 1×10^8 colony-forming units (CFU)/mL (OD600=0.9) and diluted 1:20 with BHI broth supplemented with 2% of sucrose (12). 200 μL of the diluted overnight culture was placed inside the wells of a black 96-well plate for 24 h. The media was changed after 24 h and 48 h of biofilm growth was continued. The biofilm was washed with 0.9% saline and irradiated with 100 μg/mL of TBO and MagTBO microemulsions containing 1, 2.5, and 5% of SPIONs with and without magnetic field (neodymium magnet, 0.4 Tesla; pull force=601b5). The TBO or the microemulsions were left for 1 min and then irradiated for 5 minutes to deliver an energy density of 180 J/cm^2 and light intensity of 180 mW. The magnetic field was applied at a 10 mm distance below the biofilm during the entire period of the incubation and irradiation times (FIG. 1C). Untreated wells and wells treated with glycerol, essential oil, and polysorbate 20 were used as controls. After each treatment, the biofilms were washed by placing 200 μL of 0.9% saline inside the well, and then, the 0.9% saline was gently aspirated. Next, another 200 μL of saline was placed inside the well, and the biofilm was gently scraped to remove the biofilm cells (23). Then, the biofilm cells were resuspended with the saline to perform serial dilutions (1:10, 1:100, 1:1000, 1:10 000, and 1:100 000) using BHI agar. The BHI agar plates were incubated for 48 h at 37° C. in a 5% CO2 incubator and then counted using a colony counter. Considering the dilution factor, the CFUs/mL were calculated and estimated to measure the number of colonies per milliliter. Two wells were randomly selected for Live/Dead staining of the biofilms to be washed with 0.9% saline and then stained with the BacLight live/dead kit (Molecular Probes, Eugene, Oreg.)."}, "[1]": {"test": "Absorbance change over time (UV-visible spectrometry)", "type": "physicochemical", "protocol": "(§1) Three microemulsions were selected for further investigations (1, 2.5, and 5 wt. %). Microemulsions were tested for thermodynamic stability via centrifugation stress at 5,000 rpm for 2 h at 4° C., and freeze-thaw stress consisting of three complete cycles. Each cycle consisted of placing the microemulsion for 24 h at −20° C. followed by another 24 h at 4° C. […] For long-term stability, microemulsions were kept in the dark at room temperature and then examined at 1, 3, and 6 months for physical changes or phase separation (21,22). The pH of the synthesized microemulsions was tested using a digital pH meter (accuracy±5%; Accumet XL25, Thermo Fisher Scientific, Waltham, Mass., USA). Before the pH measurement, the pH meter was calibrated using commercial standard buffer solutions of pH 4, pH 7, and pH 10 at room temperature. For the absorbance evaluation, the upper third of the synthesized microemulsions was investigated over time using ultraviolet-visible optical absorption spectrometry (SpectraMax M5, Molecular Devices, Sunnyvale, Calif., USA). […] The density of each microemulsion was calculated following the equation: […]"}, "[2]": {"system": "mouse monocyte-macrophage cells", "conditions": "cited from earlier work"}, "[3]": {"system": "saliva-derived multispecies biofilms", "test": "Photodynamic treatment against saliva-derived biofilms (CFU)", "type": "cell-based", "conditions": "7-day biofilm on dentin slabs, aPDT, no magnetic field, vs control", "protocol": "Photodynamic Treatment with MagTBO Against Saliva-Derived Biofilms\nSaliva samples were collected from ten healthy individuals with no active carious lesions or history of antibiotics in the last three months. The participants were instructed not to brush their teeth 24 h and not eat or drink two h before the collection. The collected saliva samples were mixed to create a homogenous and complex bacterial composition. The use of saliva as inoculum was approved by the University of Maryland Baltimore Institutional Review Board (HP-00050407). The collected saliva was mixed with glycerol (70:30) and stored at −80° C. This model was used in previous studies to form thick and mature multispecies biofilm (24-26).\nDentin slabs (6×6×1 mm) were used as substrates to grow the biofilm (FIG. 8A). The slabs were prepared from radicular dentin of extracted teeth using a diamond saw with water as coolant (Isomet, Buehler, Lake Bluff, Ill., USA). The collection and the use of extracted teeth were approved by the University of Maryland Baltimore Institutional Review Board. […] The microhardness of the slabs was measured via Vicker's indentation (HMV II, Shimadzu Corporation, Kyoto, Japan) by calculating the average of five different indentations (25 g load for 10 s) per slab (27). […]"}, "[4]": {"system": "Human gingival fibroblasts", "experimental": "Human gingival fibroblasts (HGF, ScienCell, San Diego, Calif., USA) were cultured using fibroblast medium (FM) supplemented with 2% fetal bovine serum, 1% fibroblast growth supplement, 100 IU/mL penicillin, and 100 IU/mL streptomycin (18 76). When the viability of the cells was above 90%, the cells were seeded in the wells of a 96-well plate (5,000 cells per well) and incubated for 24 h. In the following day, the medium was removed, and different concentrations of superparamagnetic iron(II) oxide nanoparticles (0.25, 0.5, 1, 1.5, 2, 2.5, and 5 wt. %) nanoparticles with and without 100 μg/mL of TBO photosensitizer were dissolved in the fibroblast medium and incubated in contact with the cells for 24 h. The synthesized microemulsions containing the different concentrations of superparamagnetic iron(II) oxide nanoparticles (0.25, 0.5, 1, 1.5, 2, 2.5, and 5 wt. %) were also tested. All the microemulsions were diluted with the fibroblast medium at a 1:1 ratio. After 24 h of incubation at 37° C. with 5% CO2, the cells were washed with phosphate-buffered saline (PBS), and cell counting Kit-8 (CCK-8, Dojindo, Rockville, Md., USA) was used to evaluate the cell viability. The absorbance was read at 450 nm using a spectrophotometer (SpectraMax M5, Molecular Devices, Sunnyvale, Calif., USA). For the live/dead assay, the fibroblast cells were seeded in the wells of a 24-well plate (40,000 cells per well). The medium was changed daily to allow the viability to be above 90%. Microemulsions containing 5 and 2.5% were added to a fresh culture medium at the ratio of 1:1 and incubated with the cells for one day. Wells treated with TBO alone or with no treatment were used as controls. After one day of incubation, the old medium was removed, cells were washed with PBS, and LIVE/DEAD™ Cell Imaging Kit (Invitrogen, Frederick, Md., USA) was used to stain the cells. The cells were visualized using an inverted epifluorescence microscope (Eclipse TE2000-S, Nikon, Melville, N.Y., USA)."}, "Density of microemulsion": {"test": "Density of microemulsion", "type": "physicochemical"}, "pH measurement": {"test": "pH measurement", "type": "physicochemical", "conditions": "room temperature", "protocol": "as §1"}, "[5]": {"system": "Human gingival fibroblasts", "test": "Live/dead assay of fibroblast cells", "type": "cell-based", "conditions": "one day incubation; microemulsions 1:1 with medium", "experimental": "Human gingival fibroblasts (HGF, ScienCell, San Diego, Calif., USA) were cultured using fibroblast medium (FM) supplemented with 2% fetal bovine serum, 1% fibroblast growth supplement, 100 IU/mL penicillin, and 100 IU/mL streptomycin (18 76). When the viability of the cells was above 90%, the cells were seeded in the wells of a 96-well plate (5,000 cells per well) and incubated for 24 h. In the following day, the medium was removed, and different concentrations of superparamagnetic iron(II) oxide nanoparticles (0.25, 0.5, 1, 1.5, 2, 2.5, and 5 wt. %) nanoparticles with and without 100 μg/mL of TBO photosensitizer were dissolved in the fibroblast medium and incubated in contact with the cells for 24 h. The synthesized microemulsions containing the different concentrations of superparamagnetic iron(II) oxide nanoparticles (0.25, 0.5, 1, 1.5, 2, 2.5, and 5 wt. %) were also tested. All the microemulsions were diluted with the fibroblast medium at a 1:1 ratio. After 24 h of incubation at 37° C. with 5% CO2, the cells were washed with phosphate-buffered saline (PBS), and cell counting Kit-8 (CCK-8, Dojindo, Rockville, Md., USA) was used to evaluate the cell viability. The absorbance was read at 450 nm using a spectrophotometer (SpectraMax M5, Molecular Devices, Sunnyvale, Calif., USA). […]"}},
  "data": [
    {"compound": "Cc1cc2nc3ccc(N(C)C)cc3[s+]c2cc1N.[Cl-]", "note": "[TBO, toluidine blue O]", "values": [
      {"measurement": "viable microorganisms in live/dead images", "setting": "S. mutans biofilms", "result": "significant reduction in the viable microorganisms"},
      {"measurement": "reduction against the S. mutans biofilm (CFU)", "setting": "S. mutans UA159 biofilms; aPDT with light activation 180 J/cm2, no magnetic field, vs control (FIG. 5C)", "result": 3, "unit": "log"},
      {"measurement": "antibacterial effect on S. mutans biofilm", "setting": "S. mutans UA159 biofilms; incubated for 5 min without light activation (FIG. 5B)", "result": "No antibacterial effect"},
      {"measurement": "Absorbance change (%)", "setting": "[1]; 1-Month", "result": "No change"},
      {"measurement": "Absorbance change (%)", "setting": "[1]; 3-Month", "result": "No change"},
      {"measurement": "Absorbance change (%)", "setting": "[1]; 6-Month", "result": "No change"},
      {"measurement": "toxicity against macrophage cells", "setting": "[2]; 100 μg/mL TBO, previous report (12)", "result": "did not induce significant toxicity"},
      {"measurement": "cytotoxicity against macrophage cell line", "setting": "[2]; concentrations higher than 100 μg/mL, reported (12)", "result": "critical cytotoxicity"},
      {"measurement": "reduction of multispecies biofilm CFU (total microorganisms, total streptococci, mutans streptococci, total lactobacilli)", "setting": "[3]", "result": "around 1 log"},
      {"measurement": "percentage of fibroblast viability", "setting": "[4]; TBO alone, 100 μg/mL, 24 h", "result": 33.4, "unit": "%"},
      {"measurement": "cytotoxicity against fibroblasts (in words)", "setting": "[4]; compared to the control", "result": "significant toxicity"},
      {"measurement": "Density", "setting": "Density of microemulsion", "result": 1, "unit": "g/mL"},
      {"measurement": "pH Measurement", "setting": "pH measurement", "result": "3.19 ± 0.05"},
      {"measurement": "viable cells in live/dead images", "setting": "[5]", "result": "significantly reduced viability"}
    ]},
    {"compound": "OCC(O)CO", "note": "[glycerol]", "values": [
      {"measurement": "antibacterial effect of core components on S. mutans biofilm", "setting": "S. mutans UA159 biofilms", "result": "None of the components were associated with any antibacterial effect"}
    ]},
    {"compound": "polysorbate 20", "values": [
      {"measurement": "antibacterial effect of core components on S. mutans biofilm", "setting": "S. mutans UA159 biofilms", "result": "None of the components were associated with any antibacterial effect"},
      {"measurement": "cytotoxicity of the microemulsion components (in words)", "setting": "[4]; added to fibroblast media in a ratio similar to their proportion in the microemulsion", "result": "significant cytotoxicity"}
    ]}
  ]
}
